Assays:
C2C12 [1] = assay: Induction of osteoblast differentiation in mouse C2C12 cells assessed as increase in ALP expression by ALP staining based assay; assay type: functional, cell-based
C2C12 [2] = assay: Cytotoxicity against mouse C2C12 cells assessed as reduction in cell viability at 0.3 to 10 uM by CCK8 assay; assay type: cell-based; conditions: c2c12, 10 µM

Row | Compound | Activity (C2C12 [1]) | Activity (C2C12 [2])
1 | O=c1cc(-c2ccc(O)cc2)oc2cc(O)c([C@@H]3O[C@H](CO)[C@@H](O)[C@H](O)[C@H]3O[C@@H]3OC[C@H](O)[C@H](O)[C@H]3O)c(O)c12 | Dose-dependent effect | Non-Toxic
2 | COc1cc(O)c2c(=O)cc(-c3ccc(O)cc3)oc2c1[C@@H]1O[C@H](CO)[C@@H](O)[C@H](O)[C@H]1O[C@@H]1O[C@@H](C)[C@H](O)[C@@H](O)[C@H]1O | Dose-dependent effect | Non-Toxic
3 | O=c1cc(-c2ccc(O)c(O)c2)oc2cc(O)c([C@@H]3O[C@H](CO[C@@H]4OC[C@@H](O)[C@H](O)[C@H]4O)[C@@H](O)[C@H](O)[C@H]3O)c(O)c12 | Dose-dependent effect | Non-Toxic
4 | C[C@@H]1O[C@@H](O[C@H]2[C@H](O[C@H]3CC[C@@]4(C)C(=CC[C@H]5[C@@H]6C[C@@H]7O[C@]8(CC[C@@](C)(CO[C@@H]9O[C@H](CO)[C@@H](O)[C@H](O)[C@H]9O)O8)[C@@H](C)[C@@H]7[C@@]6(C)CC[C@@H]54)C3)O[C@H](CO)[C@@H](O[C@@H]3O[C@H](CO)[C@@H](O)[C@H](O[C@@H]4O[C@H](CO)[C@@H](O)[C@H](O)[C@H]4O)[C@H]3O)[C@@H]2O)[C@H](O)[C@H](O)[C@H]1O | Dose-dependent effect | Non-Toxic
5 | COC1=CC23/C=C/C(=O)OC[C@@H]4O[C@H](O[C@@H]5CC(C(=O)O)=C[C@@H](OC(=O)/C=C/c6cc(OC)c(c2c6)OC3C[C@H]1O)[C@H]5O)[C@@H](O)[C@H](O)[C@H]4O (stereo not given in full) | Dose-dependent effect | Non-Toxic

From ChEMBL document CHEMBL4622908, “Two new secondary metabolites isolated from Avena sativa L. (Oat) seedlings and their effects on osteoblast differentiation” (Bioorg Med Chem Lett, 2020)
